Measurements taken from patent US8829039B2, “Dihydroindolinone derivatives” (Shanghai Institute of Pharmaceutical Industry, priority 2008, dated 2014).

Tests used:
Fibroblast NIH/3T3 = assay: Inhibition of fibroblast NIH/3T3 proliferation (MTT); assay type: cell-based; conditions: Mus musculus, NIH3T3, 48 h, read-out: Inhibition of NIH/3T3 cell proliferation in vitro IC50
From the text: The method commonly used at present for studying fibroblast proliferation associated diseases, i.e., for studying tissue and organ fibrosis, is measuring effects of test compounds on NIH/3T3 cell proliferation (Gao Z. M., Wan K., Effect of inhibition of NIH/3T3 cell proliferation by Cantharidin on prevention and treatment of organ and tissue fibrosis. Chinese Journal of Clinical Rehabilitation, 2004 (2). Tao Y. Y., Wang X. L., Effects of Salvianolic Acid-B on TGF-β1/ERK Signaling Transduction in NIH/3T3 Fibroblast. Journal of Capital Medical University, 2007 (2)).
Fibroblast NIH/3T3 in logarithmic growth phase was seeded in a 96-well plate, by a certain number of cells (100 μL/well, 0.5−1×10^4 cells/mL). After incubating for 24 h, the screened samples (20 μl/well) were added (directly added after cell suspension was seeded in the plate), incubated for further 48 h at 37° C. and 5% CO2. Afterwards, MTT (5 mg/mL) was added to the 96-well plate (20 μL/well). The cells were incubated for another 4 h, and then dissolved with DMSO (150 μL/well) and measured with a microplate reader at 490 nm. The inhibition rate and IC50 were calculated.

[1] = system: Human cervical cancer cell Hela; assay: Anti-tumor activity assay (MTT), Hela; assay type: cell-based; conditions: 48 hrs, samples freshly prepared with DMSO, read-out: Inhibition rate; for inhibition at 0.1 µg/mL: final concentration 0.1 μg/mL; for inhibition at 1 µg/mL: final concentration 1 μg/mL; for inhibition at 10 µg/mL: final concentration 10 μg/mL
Description: (§1) These tests were carried out using conventional operations in the art. Specifically, the following materials and methods were employed:
(§2) Human cervical cancer cell Hela, human liver cancer cell SMMC-7721, human lung cancer cell A549, poorly differentiated human gastric adenocarcinoma cell BGC-823, human breast cancer cell MDA-MB-231.
(§3) To a bottle containing exponential growth phase cells in good condition, 0.25% trypsin solution was added. […] The cell suspension was seeded in a 96-well plate with an amount of 100 μL/well, incubated in a CO2 incubator for 24 hrs. 20 μL/well of tested compounds were added, followed by […], of 10% serum medium, and incubated for 48 hrs. 20 μL/well of MTT (5 mg/mL) was added to the 96-well plate, and the cells were incubated for 4 hrs in the incubator. After removing the supernatant, 150 μL/well of DMSO was added, and the cells were shaked in a horizontal swing bed for 10 minutes. Optical density value (OD value) of each well was measured with an ELISA analyzer at 490 nm, and cell inhibition rate was calculated. The corresponding solvent was used as negative control, and paclitaxel was used as positive control.

breast cancer cell A435 = assay: Inhibition of tumor cell proliferation in vitro (MTT), A435; assay type: cell-based; conditions: 48 hrs, read-out: Growth inhibition in vitro IC50
Description: (§4) The activity assay of the compounds of the invention was carried out through common methods in the art. Commercially available Sunitinib was used as positive control, and lung cancer cell H460, colon cancer cell COLO205 and HT29, breast cancer cell A435 were used as exemplary tumor cells. The tested compounds were prepared by the methods disclosed in the Examples above.
(§5) A certain amount (100 μL/well, 0.5−1×10^4 cells/mL) of lung cancer cell H460, colon cancer cell COLO205, and breast cancer cell A435, etc. in logarithmic growth phase were seeded in a 96-well plate, and incubated in an incubator for 24 hrs at 37° C. and 5% CO2. Afterwards, tested compounds and positive control (20 μL/wells) were added, followed by 80 µL of 10% serum medium, and then the tumor cells were incubated for further 48 hrs at 37° C. and 5% CO2. Afterwards, MTT (5 mg/mL) was added to the 96-well plates (20 μL/well), and the cells were incubated for another 4 h. After removing the supernatant, the cells were dissolved with DMSO (150 μL/well) and measured with a microplate reader at 490 nm.

[2] = system: human lung cancer cell A549; assay: Anti-tumor activity assay (MTT), A549; assay type: cell-based; conditions: 48 hrs, samples stored at −20° C. for one week, read-out: Inhibition rate; for inhibition at 0.1 µg/mL: final concentration 0.1 μg/mL; for inhibition at 1 µg/mL: final concentration 1 μg/mL; for inhibition at 10 µg/mL: final concentration 10 μg/mL
Description: as §1, §2, §3

Lung cancer cell H460 = assay: Inhibition of tumor cell proliferation in vitro (MTT), H460; assay type: cell-based; conditions: Homo sapiens, NCI-H460, 48 hrs, read-out: Growth inhibition in vitro IC50
Description: as §4, §5

[3] = system: human breast cancer cell MDA-MB-231; assay: Anti-tumor activity assay (MTT), MDA-MB-231; assay type: cell-based; conditions: 48 hrs, samples stored at −20° C. for one week, read-out: Inhibition rate; for inhibition at 0.1 µg/mL: final concentration 0.1 μg/mL; for inhibition at 1 µg/mL: final concentration 1 μg/mL; for inhibition at 10 µg/mL: final concentration 10 μg/mL
Description: as §1, §2, §3

[4] = system: colon cancer cell COLO205; assay: Inhibition of tumor cell proliferation in vitro (MTT), COLO205; assay type: cell-based; conditions: Homo sapiens, COLO 205, 48 hrs, read-out: Growth inhibition in vitro IC50
Description: as §4, §5

[5] = system: human colon cancer HT-29 cells transplanted in nude mice; assay: Growth inhibition of human cancer HT-29 cells transplanted in nude mice; assay type: in vivo; conditions: for Body weight d0 / Body weight d21: nude mice with HT-29 tumor; for Body weight d0: d0, time of administration in separate cages; for Body weight d0 / TV d0: 30 mg/kg group; for Body weight d21 / T/C (%) / RTV / TV d21: 30 mg/kg intragastrically once a day for 21 days; for T/C (%): relative tumor proliferation rate TRTV/CRTV; for RTV: relative tumor volume TVt/TV0; for TV d0: tumor volume at d0, time of administration in separate cages; for TV d21: tumor volume at d21
Description: A piece of tumor tissue in vigorous growth phase was obtained and cut into the size of about 1.5 mm^3, and subcutaneously inoculated into the right axillary region of nude mice aseptically. Diameters of transplanted tumors in nude mice were measured with a vernier caliper. After tumors grew to 100˜300 mm^3, the animals were randomly divided into 6 groups: model control group, Sunitinib group (30 mg/kg), Compound 1 group (30 mg/kg), Compound 2 group (30 mg/kg), Compound 3 group (30 mg/kg), Compound 4 group (30 mg/kg). […] Meanwhile, the negative control group was administered equivalent amount of sterile saline. The dynamic observation of antitumor effects of compounds 1-4 and Sunitinib was performed by measuring tumor diameters. […] The general behavior of nude mice was observed and recorded daily. (1) Tumor volume (TV), calculated by the equation: […] wherein a, b represent length and width, respectively. […] RTV=TVt/TV0 wherein TV0 represents the tumor volume at the beginning of administration in separated cages (ie. d0), TVt represents the tumor volume of each measurement. […] T/C %=(TRTV/CRTV)×100% TRTV: RTV of positive control group and each test compound group. CRTV: RTV of model control group.

[6] = system: human liver cancer cell SMMC-7721; assay: Anti-tumor activity assay (MTT), SMMC-7721; assay type: cell-based; conditions: 48 hrs, samples stored at −20° C. for one week, read-out: Inhibition rate; for inhibition at 0.1 µg/mL: final concentration 0.1 μg/mL; for inhibition at 1 µg/mL: final concentration 1 μg/mL; for inhibition at 10 µg/mL: final concentration 10 μg/mL
Description: as §1, §2, §3

[7] = system: poorly differentiated human gastric adenocarcinoma cell BGC-823; assay: Anti-tumor activity assay (MTT), BGC-823; assay type: cell-based; conditions: 48 hrs, samples stored at −20° C. for one week, read-out: Inhibition rate; for inhibition at 0.1 µg/mL: final concentration 0.1 μg/mL; for inhibition at 1 µg/mL: final concentration 1 μg/mL; for inhibition at 10 µg/mL: final concentration 10 μg/mL
Description: as §1, §2, §3

SMILES | IC50 (Fibroblast NIH/3T3) [nM] | inhibition at 0.1 µg/mL [1] [%] | inhibition at 1 µg/mL [1] [%] | inhibition at 10 µg/mL [1] [%] | IC50 (breast cancer cell A435) [nM] | inhibition at 0.1 µg/mL [2] [%] | inhibition at 1 µg/mL [2] [%] | inhibition at 10 µg/mL [2] [%] | IC50 (Lung cancer cell H460) [nM] | inhibition at 0.1 µg/mL [3] [%] | inhibition at 1 µg/mL [3] [%] | inhibition at 10 µg/mL [3] [%] | IC50 [4] [nM] | Body weight d0 [5] [g] | Body weight d21 [5] [g] | T/C (%) [5] [%] | RTV [5] | TV d0 [5] [mm^3] | TV d21 [5] [mm^3] | inhibition at 0.1 µg/mL [6] [%] | also measured
Cc1[nH]c(/C=C2\C(=O)Nc3ccc(F)cc32)c(C)c1C(=O)NCCC1CCCN1C (stereo not shown) [Compound 2, N-[(1-methylpyrrolidin-2-yl)ethyl]-5-(5-fluoro-2-oxo-1,2-dihydroindole-3-methylene)-2,4-dimethyl-1H-pyrrole-3-formamide] | 536 | -6.18 | 24.7 | 97.2 | 85 | 0.59 | 29.9 | 100 | 160 | -0.2 | 16.5 | 71.6 | 110 | 19.7 ± 1.7 | 19.7 ± 1.6 | 17.8 | 1.6 ± 0.9 | 193.5 ± 61.9 | 342.9 ± 284.7 | -6.59 | inhibition at 1 µg/mL [6]: -10.8%; inhibition at 10 µg/mL [6]: 74.8%; inhibition at 0.1 µg/mL [7]: 4.73%; inhibition at 1 µg/mL [7]: 20.2%; inhibition at 10 µg/mL [7]: 76.2%; melting point: 241 to 244 °C
Cc1[nH]c(/C=C2\C(=O)Nc3ccc(F)cc32)c(C)c1C(=O)NCC1CCCCN1 (stereo not shown) [Compound 3] | 530 | -3.2 | 50.8 | 98 | 68 | 11.9 | 22.7 | 94.2 | 140 | -5.4 | 0.5 | 88.6 | 110 | 20.6 ± 2.0 | 20.8 ± 2.3 | 15.0 | 1.3 ± 0.7 | 196.7 ± 62.7 | 290.4 ± 238.4 | -18.6 | inhibition at 1 µg/mL [6]: 4%; inhibition at 10 µg/mL [6]: 62.1%; inhibition at 0.1 µg/mL [7]: -5.42%; inhibition at 1 µg/mL [7]: 17%; inhibition at 10 µg/mL [7]: 78.8%; melting point: 263 to 266 °C
